Data: US20240294697A1, “AMPHIPHILIC OLIGOMERS AND SELF-ASSEMBLING HYDROGELS FORMED THEREFROM” (THE GOVERNING COUNCIL OF THE UNIVERSITY OF TORONTO, priority 2021, published 2024)

System: primary chondrocytes
Conditions: H2O2 between 25 and 100 μM

concentrations resulting in metabolically active cells: below 50 μM
SMILES: OO [H2O2, hydrogen peroxide]
concentrations evidencing cell toxicity: above 50 μM
